Source: a melting point compilation (Tetko et al.)

melting point [°C] | Compound
-25 | CCCCCCCCCCCC(C)C
229 to 231 | CSc1nc2cc(N=Cc3ccccc3Cl)ccc2[nH]1
-93 | CC(C)CI
136 to 137 | O=C(CBr)c1coc2ccccc12
180 | O=C(c1ccc(O)cc1)c1ccc(Cl)cc1
156 to 157 | CSc1nc2nc(C)cc(C)n2n1
140 | COc1c(C(=O)O)csc1Cl
224 to 225 | CCOC(=O)c1cnc(N)nc1C
199 | CC(=O)c1nn2c(nc(=O)c3ccccc32)s1
128 | CC1=C(C)C(=O)C(C(CCCCCC(=O)O)c2ccccc2)=C(C)C1=O (stereo not given)
88 to 89 | Nc1cc(N)cc(C(F)(F)F)c1
300 to 301 | O=C(O)c1ccc(-c2cnco2)cc1
180 to 183 | CC1CC(=O)Nc2ccccc2N1 (stereo not given)
300 | O=C(CI)NCCNc1cccc2c(S(=O)(=O)O)cccc12
239 to 246 | CC(=O)Oc1cc2c(cc1Cl)C1(OC(=O)c3ccccc31)c1cc(Cl)c(OC(C)=O)cc1O2
75 | CC1=C(C(=O)OC(C)C)C(c2ccc([N+](=O)[O-])cc2)NC(=S)N1 (stereo not given)
-40 | Ic1cccs1
54 | O=S(=O)(Cl)c1ccc(Cl)cc1Cl
164 to 169 | Cc1cc([N+](=O)[O-])cc(C)c1O
101 | CN(C)c1ccc(C(O)c2ccc(N(C)C)cc2)cc1
110 | Nc1ccncc1C=O
183 | Nc1ccc(-c2ccc(N)cc2C(F)(F)F)c(C(F)(F)F)c1
170 | N#C/C(=C/c1cccs1)c1nc(-c2ccc(Cl)cc2)cs1

melting point [°C] | Compound
41.5 to 45 | Cn1ccc(C#N)n1
149 | O=Cc1cc([N+](=O)[O-])cc(Br)c1O
78 | COc1ccccc1NC(=O)c1cnc(C(C)(C)C)cn1
159 to 160 | Cc1ccc(C=C2N=C(c3ccccc3)OC2=O)o1
160 | COc1ccc(-c2nnc3n2NC(c2ccc(Cl)cc2)S3)cc1 (stereo not given)
126 | N#CCN(CC#N)CC#N
85 to 90 | CCCCCc1ccc(C(=O)O)cc1
283 to 285 | CC12CCC(C(=CC=C3C(=O)C4(C)CCC3C4(C)C)C1=O)C2(C)C
180 | ON(C=C(Br)c1ccccc1)c1ccccc1
56 to 58 | BrCc1ccc(OC2CCOCC2)cc1
61.5 | CCCCCCCOc1ccc(O)cc1
241 | O=c1oc(-c2c(F)cccc2Cl)cc2ccccc12
150 | O=C(O)c1c(Br)cccc1Br
-105 | CC(C)CCCC(C)(C)C
155 | C/C(=C(/C#N)c1nc2ccccc2s1)c1cc2ccccc2oc1=O
187 | CC(C)(C(N)=O)n1nnc2ccccc21
94 | CC1CCC(C)(CO)C1(C)C (stereo not given)
115 | C1CCC2C(C1)CCC1C3CCCCC3CCC21 (stereo not given)
164 | c1ccc2c(c1)-c1ccc3ccc4cccc5cc-2c1c3c45
164 | COc1ccc(CNC2=CC(=O)c3ccccc3C2=O)cc1
125 to 128 | O=C(O)C1COc2ccccc2O1 (stereo not given)
97 | CCCOC(=O)c1ccccc1O
274 to 275 | O=C(O)c1cc2cc([N+](=O)[O-])ccc2o1

melting point [°C] | Compound
115 | COc1ccc(C(=O)/C(=N\Nc2cc(Cl)ccc2Cl)S(=O)(=O)c2ccccc2)cc1
133 | CC(C)(C)OC(=O)NC1(C(=O)O)CCCC1
180 | O=C(c1ccccc1)N1CC(c2ccccc2)C=C1c1ccccc1 (stereo not given)
124 | COC(=O)C1(S(=O)(=O)c2ccc(Br)cc2)CC1
234 | NS(=O)(=O)c1cc2c(cc1Cl)NC(C1CC3C=CC1C3)NS2(=O)=O (stereo not given)
129 to 132 | O=C(O)CCC(=O)c1ccc(Cl)cc1
115 | C=C1C(=CC=C2CCCC3(C)C2CCC3C(C)CCCC(C)(C)O)CC(O)CC1O (stereo not given)
56.5 | CCOC(=O)COc1cccc2ccccc12
131 | O=C1NCCN1
297 | COc1ccc(-c2cc3c(C#N)c(N)[nH]n3c(=O)c2C#N)cc1
264 to 266 | CSc1nc(=O)[nH]c2c1CCCC2
108 | CS[C@H]1C(=O)[C@@H]2CC[C@]3(C)[C@@H](OC(C)(C)C)CC[C@]13[C@H]2Cl
182 | Oc1nc(CCc2ccccc2)nn1-c1ccccc1
61 to 63 | O=S(=O)(Cl)Cc1ccc(F)cc1
164 to 165 | CCOC(=O)c1c(NC(=O)Nc2cccc(Cl)c2)sc2c1CCCC2
341 | O=C(O)c1ccc2c(c1)C(=O)c1ccccc1-2
144 to 145 | CC1(c2ccccc2)CC(C(=NOC(=O)Cc2ccccc2)c2cc3ccccc3o2)C1 (stereo not given)
180 | O=C(O)c1cc2sccc2[nH]1
295 to 300 | O=C(O)C=CC(=O)O
189 to 198 | N#CC=P(c1ccccc1)(c1ccccc1)c1ccccc1
130 to 134 | O=C(O)C(O)c1ccc(C(F)(F)F)cc1 (stereo not given)
-3.5 | O=Cc1ccccc1O
6 | CCCCCCCCC=CCCCCCCCCO

melting point [°C] | Compound
209 | COc1c(O)ccc2c1C(=O)N1CCc3cc4c(cc3[C@@H]1C2)OCO4
92.5 | CC(C)OC(=O)C1(S(=O)(=O)c2ccc(Cl)cc2)CCCC1
187 | O=C1C=C(O)CC(c2ccccc2)C1 (stereo not given)
203 to 205 | NC(=O)C1=CNCCC1
197 to 198 | NC(=O)NN=C(O)/C=C/c1ccccc1
155 to 157 | Cc1ccccc1OCC(=O)O
150 | O=C(Cl)c1nc2ccccc2s1
64 to 66 | Cc1cc(C)c([N+](=O)[O-])c(C)c1Br
150 to 153 | N#Cc1ccc(O)c(Cl)c1
148 to 153 | CCOC(=O)[C@H](CCc1ccccc1)N[C@@H](C)C(=O)O
100 | CCCCCCN(C)C(=O)COC(=O)c1ccccc1
155 to 157 | CCOC(=O)c1c(-c2ccc(-c3ccccc3)cc2)csc1N
165 | CNc1ccc2cc(OC)[nH]c2c1
140 | CCCCCCNC(=O)c1ccc(O)c(O)c1
250 | Cn1nnc2cc(C(=O)O)ccc21
127 to 130 | CSc1nc(N)nc(C(C)C)n1
190 | BrC(Br)(Br)c1ccc2cc3ccc(C(Br)(Br)Br)nc3cc2n1
135 to 137 | NC(=O)CC[C@H](NC(=O)OCc1ccccc1)C(=O)O
89.8 | COC1OC(COC(=O)C(C)(C)C)C(O)C(OC(=O)C(C)(C)C)C1O (stereo not given)
112 to 114 | Cc1nc(-c2cccc(C#N)c2)cs1
188 to 189 | CCCCc1c(C)nc(NC(=O)NS(=O)(=O)c2cccs2)nc1Cl
89 | CC(C)(O)C(=O)c1ccc(OCCO)cc1
37 | O=C(O)C1(C(F)(F)F)CCCC1

melting point [°C] | Compound
46 | O=S(=O)(N(c1ccc(Cl)cn1)S(=O)(=O)C(F)(F)F)C(F)(F)F
84 to 85 | CC(C)(C)C(=O)OCC(N)=S
82 to 84 | Cc1cc([N+](=O)[O-])ccc1N=C=S
117 to 122 | Nc1cnc(N)c(Br)c1
206 | O=C1c2ccccc2C(=O)N1Br
104 | O=[N+]([O-])c1c(O)ccc2ccccc12
276 to 279 | N#Cc1c(C(F)(F)F)cc(Nc2cccc([N+](=O)[O-])c2)nc1Cl
115 | COc1ccc(C(Cl)=C(c2ccc(OC)cc2)c2ccc(OC)cc2)cc1
54 | C(=Nc1ccccc1)c1ccccc1
296 | Cn1c2ccccc2n2c(=O)c3ccncc3c(C#N)c12
242 to 244 | Nc1ccc(C2=NNC(=O)CC2)cc1
105 | CC12CCC(c3c(Br)cc(=O)oc31)C2(C)C (stereo not given)
88 | CCOC(=O)C(C#N)=Cc1ccccc1Cl
8.5 | CCCCCCCCCCCC(=O)OCc1ccccc1
115 to 117 | CSc1ncnc2c1cnn2-c1ccccc1
34 | CCCCCCCCCCCCCCCCC#N
-66 | COC(=O)C(C)O (stereo not given)
275 | Cc1cc(=O)oc2cc(O)c(O)cc12
-89.4 | CC(C)C1CCCCC1
80 | N#CC=Cc1cc(C(F)(F)F)cc(C(F)(F)F)c1
38.5 | CSc1ccc(Br)cc1
214 | c1ccc(N2CSc3nnc(-c4cccnc4)n3C2)cc1
145 to 148 | CC(=O)O[C@H]1[C@H](OC(C)=O)[C@@H](S(=O)(=O)c2ccccc2)OC[C@H]1OC(C)=O

Compound | melting point [°C]
CC(C)N(C(=O)Cl)C(C)C | 55 to 60
O=C(O)CCCCCO | 38 to 40
O=[N+]([O-])c1cc([N+](=O)[O-])cc(C(F)(F)F)c1 | 51
CN1C(=O)C(=NNc2cccc(Cl)c2)C(=O)N(C)C1=O | 202
FC(F)=C(F)C(F)=C(F)F | -132
C[C@]12CC[C@H]3[C@@H](CCC4=CC(=O)CC[C@@]43C)[C@@H]1CC[C@@H]2C(=O)O | 254
CCCOCC(=Nc1ccc(Cl)cc1C(F)(F)F)n1ccnc1 | 63.5
COc1ccc(C)cc1N | 53
COc1cc(Oc2ccc(Cl)cc2Cl)ccc1[N+](=O)[O-] | 114
Clc1ccc2c(c1)C(c1ccccc1)=NCc1nncn1-2 | 228
Cc1cc(C(=O)CBr)ccc1Cl | 56 to 57
CCC(C)I (stereo not given) | -104
CC(=O)OCC1=C(C(=O)O)N2C(=O)C(N)C2SC1 (stereo not given) | 300
C=CCC1(O)CCC2C3CCC4=CCCCC4C3CCC21C (stereo not given) | 80
CCC(CO)NC(=O)C1C=C2c3cccc4[nH]cc(c34)CC2N(C)C1 (stereo not given) | 172
